Columns and labels:
[1] = tested on: C. necator R form-specific enoyl-CoA hydratase PhaJ3 (phaJ3 gene), wild type, recombinant N-terminal His tag; experiment: enoyl-CoA hydratase activity, absorbance decrease at 263 nm, Lineweaver-Burk analysis; format: biochemical, Cupriavidus necator H16; details: 100 mM Tris-HCl buffer (pH 7.8); for Km: read-out: Michaelis constant Km
Description: (§1) By homology search with a known R form-specific enoyl CoA hydratase, phaJ1 (SEQ ID NO: 2), phaJ2 (SEQ ID NO: 3), and phaJ3 were identified as a presumptive R form-specific enoyl CoA hydratase gene. Then, using the genomic DNA of C. necator as the template, phaJ1 was amplified by a PCR method with the oligonucleotides of the following sequence 19 and sequence 20 as the primers. Similarly, phaJ2 was amplified by a PCR method with the oligonucleotides of sequence 21 and sequence 22 as the primers. Furthermore, phaJ3 was amplified by a PCR method with the oligonucleotides of sequence 23 and sequence 24 as the primers. Using the KOD Plus (manufactured by TOYOBO) for PCR, a cycle comprising 20 seconds at 98° C., 15 seconds at 61° C. and 2 minutes at 68° C. was repeated for 30 cycles.
(§2) Each fragment of phaJ1, phaJ2 and phaJ3 that were amplified and cleaved with NdeI and XhoI in Example 16 was inserted into an expression plasmid pCOLDII (manufactured by Takara-Bio) cleaved with each of NdeI and XhoI. The plasmids obtained were designated as pCOLD-J1, pCOLD-J2 and pCOLD-J3. These expression plasmids have been constructed so as to produce recombinant protein in which a tag sequence (hereinafter referred to as His tag) comprising 6 histidine residues has been added to the amino terminal end. Using pCOLD-J1, pCOLD-J2 and pCOLD-J3, E. coli strain BL21 (DE3) (manufactured by Novagen) was transformed. Each transformant obtained was cultured in 100 mL of LB medium with 100 mg ampicillin at 37° C. for 4 hours, to which isopropyl-thiogalacto-pyranoside (IPTG) was added at a final concentration of 0.5 mM to induce expression, and further culcuted at 15° C. for 24 hours. The cells collected by centrifugation were resuspended in 20 mM sodium phosphate buffer (pH 7.4) containing 30 mM imidazole and 500 mM NaCl, sonic-disrupted and centrifuged to obtain soluble protein fractions.
(§3) This soluble protein fraction was filtered with a filter having a pore size of 0.22 μm. Then, this was subjected to the HisTrap FF crude column (1 ml) (manufactured by GE Healthcare) equalized in advance with 20 mM sodium phosphate buffer (pH 7.4) containing 30 mM imidazole and 500 mM NaCl so as to allow the His tag-carrying protein to be adsorbed. Subsequently, by linearly increasing the imidazole concentration from 30 mM to 500 mM, the adsorbed protein was eluted and recovered to prepare purified enzyme.
(§4) Proteins expressed from the three genes, phaJ1, phaJ2 and phaJ3, derived from C. necator are hereinafter referred to as PhaJ1, PhaJ2 and PhaJ3, respectively. For each of purified recombinant protein products produced in E. coli, the activity of enoyl-CoA hydratase when crotonyl-CoA (4 carbons), 2-hexenoyl-CoA (6 carbons) or 2-octenoyl-CoA (8 carbons) was used as the substrate was determined according to the method described in Non-patent document 4. Thus, the purified enzyme was added to 100 mM Tris-HCl buffer (pH 7.8) containing the substrate (a total volume of 400 μl), and reduction in absorbance at 263 nm was measured with a spectrophotometer. At this time, the measured values obtained by varying the substrate concentration were analyzed by the Lineweaver-Burk plot to calculate the Michaelis constant Km, and the maximum velocity Vmax.

[2] = target: T1, C. necator R form-specific enoyl-CoA hydratase PhaJ1 (phaJ1 gene, H16_A1070, SEQ ID NO: 2), wild type, recombinant N-terminal His tag (Cupriavidus necator, UniProt Q0KCR0); experiment: as above; format: biochemical, Cupriavidus necator H16; details: 100 mM Tris-HCl buffer (pH 7.8)
T1 sequence (Q0KCR0 1-158): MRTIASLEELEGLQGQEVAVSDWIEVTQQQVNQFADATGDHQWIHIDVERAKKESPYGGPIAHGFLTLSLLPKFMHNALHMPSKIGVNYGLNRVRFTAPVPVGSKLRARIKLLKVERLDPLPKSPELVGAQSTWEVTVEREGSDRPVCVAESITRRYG
Description: as §1, §2, §3, §4

[3] = target: C. necator R form-specific enoyl-CoA hydratase PhaJ2 (phaJ2 gene, H16_B0397, SEQ ID NO: 3), wild type, recombinant N-terminal His tag (Cupriavidus necator, UniProt Q0K478); experiment: as above; format: biochemical, Cupriavidus necator H16; details: 100 mM Tris-HCl buffer (pH 7.8)
Description: as §1, §2, §3, §4

[4] = substrate: CCC/C=C/C(=O)SCCNC(=O)CCNC(=O)[C@H](O)C(C)(C)COP(=O)(O)OP(=O)(O)OC[C@H]1O[C@@H](n2cnc3c(N)ncnc32)[C@H](O)[C@@H]1OP(=O)(O)O; experiment: as above; format: biochemical, Cupriavidus necator H16
Description: as §1, §2, §3, §4

[5] = substrate: C/C=C/C(=O)SCCNC(=O)CCNC(=O)[C@H](O)C(C)(C)COP(=O)(O)OP(=O)(O)OC[C@H]1O[C@@H](n2cnc3c(N)ncnc32)[C@H](O)[C@@H]1OP(=O)(O)O; experiment: as above; format: biochemical, Cupriavidus necator H16
Description: as §1, §2, §3, §4

[6] = substrate: CCCCC/C=C/C(=O)SCCNC(=O)CCNC(=O)[C@H](O)C(C)(C)COP(=O)(O)OP(=O)(O)OC[C@H]1O[C@@H](n2cnc3c(N)ncnc32)[C@H](O)[C@@H]1OP(=O)(O)O; experiment: as above; format: biochemical, Cupriavidus necator H16
Description: as §1, §2, §3, §4

[7] = stereoselectivity of the hydration reaction, coupled with PHA granule-mediated polymerization and DTNB; format: biochemical; details: for absorbance at 412 nm: 0.2 mM crotonyl-CoA, 1 mM DTNB, 5 μl PHA granule fraction, 100 mM Tris-HCl pH 7.8, FIG. 4; for stereoselectivity of the hydration reaction: concluded from the CoA-SH release with PHA granule fraction and DTNB
Description: FIG. 4 The result of investigating the stereoselectivity of PhaJ1, PhaJ2 and PhaJ3 by the conjugation of the enoyl-CoA hydratase-mediated hydration reaction and the PHA granules-mediated polymerization reaction. (A) PhaJ1, (B) PhaJ2, and (C) PhaJ3; dark square: purified enzyme added, open triangle: no purified enzyme added.
In the above measurement of enoyl-CoA hydratase activity, no findings can be obtained on stereoselectivity at the addition of water to the double bond. Thus, the stereoselectivity of the hydration reaction by PhaJ1, PhaJ2 and PhaJ3 was investigated as follows. From the cells of C. necator that accumulated PHA, a water-insoluble PHA granule fraction can be prepared, but PHA synthetic synthase is bound to the surface of the PHA granules. This PHA synthase specifically polymerizes (R)-3-hydroxyacyl-CoA and releases CoA-SH. Thus, when both of the PHA granule fraction and 5,5′-dithiobis(2-nitrobenzoic acid) (DTNB) are present in the reaction solution for determining enoyl-CoA hydratase activity, COA-SH released together with the polymerization by PHA synthase reacts with DTNB to produce a yellow dye having a specific absorption at 412 nm, if the specificity of enoyl-CoA hydratase is (R)-form-specific. Conversely, when enoyl-CoA hydratase is (S)-form-specific, no yellow dye is produced.
Measurement was carried out according to the method described in Non-patent document 4. Thus, the PHA granule fraction was prepared from the cells of the C. necator wild type strain (the H16 strain) cultured for 36 hours in 100 ml of a medium containing fructose as a carbon source in a method described in Example 18. The cells were collected by centrifugation from the culture, and suspended in 3 ml of 50 mM Tris-HCl buffer (pH 7.5) followed by sonic-disruption. The supernatant obtained by low-speed centrifugation of the disruption liquid at 1,500×g, 5 min was further subjected to high-speed centrifugation at 15,000×g, 15 min. And the precipitate fraction was suspended in 3 ml of 50 mM Tris-HCl buffer (pH 7.5) to prepare a PHA granule fraction. Then, the purified enzyme was added to 100 mM Tris-HCl buffer (pH 7.8) containing 0.2 mM crotonyl-CoA, 1 mM DTNB and 5 μl PHA granule fraction (a total volume of 400 μl), and an increase in absorbance at 412 nm was measured.

[8] = other: PhaJ2, 100 mM Tris-HCl buffer (pH 7.8)
[9] = other: PhaJ1, 100 mM Tris-HCl buffer (pH 7.8)

Molecule: CCC/C=C/C(=O)SCCNC(=O)CCNC(=O)[C@H](O)C(C)(C)COP(=O)(O)OP(=O)(O)OC[C@H]1O[C@@H](n2cnc3c(N)ncnc32)[C@H](O)[C@@H]1OP(=O)(O)O [2-hexenoyl-CoA (C6), 2-hexenoyl-CoA]
- Maximum velocity Vmax [1]: 1.1 ± 0.1 × 10^2 U mg^−1
- Km [1]: 110 ± 16 µM
- Maximum velocity Vmax [2]: 7.0 ± 0.5 × 10^2 U mg^−1
- Maximum velocity Vmax [3]: 2.4 ± 0.3 × 10^3 U mg^−1

Molecule: CCCCC/C=C/C(=O)SCCNC(=O)CCNC(=O)[C@H](O)C(C)(C)COP(=O)(O)OP(=O)(O)OC[C@H]1O[C@@H](n2cnc3c(N)ncnc32)[C@H](O)[C@@H]1OP(=O)(O)O [2-oxtenoyl-CoA (C8), 2-octenoyl-CoA]
- Maximum velocity Vmax [1]: 2.8 ± 0.5 × 10^2 U mg^−1
- Km [1]: 38 ± 12 µM
- Maximum velocity Vmax [2]: 6.7 ± 0.7 × 10^2 U mg^−1
- Maximum velocity Vmax [3]: 2.0 ± 0.1 × 10^3 U mg^−1

Molecule: C/C=C/C(=O)SCCNC(=O)CCNC(=O)[C@H](O)C(C)(C)COP(=O)(O)OP(=O)(O)OC[C@H]1O[C@@H](n2cnc3c(N)ncnc32)[C@H](O)[C@@H]1OP(=O)(O)O [Crotonyl-CoA (C4), crotonyl-CoA]
- Maximum velocity Vmax [1]: 1.3 ± 0.2 × 10^1 U mg^−1
- Km [1]: 178 ± 46 µM
- Maximum velocity Vmax [3]: 1.4 ± 0.1 × 10^2 U mg^−1

B1: C. necator R form-specific enoyl-CoA hydratase PhaJ2 (phaJ2 gene, H16_B0397, SEQ ID NO: 3), wild type, recombinant N-terminal His tag (Cupriavidus necator H16) (protein)
chain: MKTYENIADLQPLVGEVIGTSEWLALDQARINTFADATGDHQWIHVDVERAKNGPFGAPIAHGFLTLSLLPAFTHSAYRIRNSSTGVNYGLDKVRFPAPVPVDSLLRAQFKLMSYEALENGGAQFKVEMMVERQGGSKPVCIAESILRRFP
- Km [4, 8]: 77 ± 14 µM
- Km [5, 8]: 311 ± 15 µM
- Km [6, 8]: 23 ± 4 µM

B2: PhaJ2: purified His-tagged recombinant protein expressed in E. coli from phaJ2 (SEQ ID NO: 3) of C. necator; (R)-form-specific enoyl-CoA hydratase (protein)
chain: B1 chain
modifications: His tag; Cupriavidus necator R-hydratase gene (phaJ2); Cupriavidus necator strain H16 (R)-form- specific enoyl-CoA hydratase (R-hydratase, phaJ2), H16_B0397
- absorbance at 412 nm [7]: increase
- stereoselectivity of the hydration reaction [7]: (R)-form-specific

B3: C. necator R form-specific enoyl-CoA hydratase PhaJ1 (phaJ1 gene, H16_A1070, SEQ ID NO: 2), wild type, recombinant N-terminal His tag (Cupriavidus necator H16) (protein)
chain: T1 sequence (Q0KCR0 1-158)
- Km [4, 9]: 41 ± 7 µM
- Km [5, 9]: 91 ± 5 µM
- Km [6, 9]: 24 ± 5 µM

B4: PhaJ1: purified His-tagged recombinant protein expressed in E. coli from phaJ1 (SEQ ID NO: 2) of C. necator; (R)-form-specific enoyl-CoA hydratase (protein)
chain: T1 sequence (Q0KCR0 1-158)
modifications: His tag; Cupriavidus necator; Cupriavidus necator strain H16 (R)-form- specific enoyl-CoA hydratase (R-hydratase, phaJ1), H16_A1070
- absorbance at 412 nm [7]: increase
- stereoselectivity of the hydration reaction [7]: (R)-form-specific

Source: US20130071892A1, “PROCESS FOR PRODUCTION OF POLYHYDROXYALKANOIC ACID USING GENETICALLY MODIFIED MICROORGANISM HAVING ENOYL-CoA HYDRATASE GENE INTRODUCED THEREIN” (TOKYO INSTITUTE OF TECHNOLOGY, priority 2010, published 2013)
